# Read-outs that look alike come from different tables or passages of the source.
# Experiments:
# [1] = Rising single-dose safety, tolerability and pharmacokinetics study in healthy human volunteers; assay type: in vivo
# Protocol: A randomized, placebo-controlled, third party blind (within dose level), rising, single-dose escalation study to evaluate the safety, tolerability and pharmacokinetics of SCH900978 in healthy human volunteers was conducted and completed. […] Six subjects received placebo. […] Food had no effect on the oral bioavailability of SCH900978. […] Tmax occurred within 0-4 hours at each dosage strength. Table 2 below provides the mean SCH900978 pharmacokinetic parameters following administration of a single oral dose of 25 mgs of SCH900978 capsule or solution to healthy volunteers.
# Table 3 below provides the mean SCH900978 pharmacokinetic parameters following administration of a single oral dose of 50 mgs of SCH900978 to healthy volunteers under fasted and fed conditions.
# Solubility = assay type: physicochemical; details: pH 7, aqueous buffer
# Text: (§1) The present invention comprises a compound having activity in mammalian cough models and is thus useful in the treatment of cough in mammals, including humans, after oral administration. The present invention comprises an oral formulation of a compound of formula I and pharmaceutically acceptable excipients selected from the group consisting of diluents, binders, disintegrants, wetting agents and lubricants. In a preferred embodiment the pharmaceutical composition comprises a compound of formula I (or IIa-IIc) or II and lactose monohydrate, microcrystalline cellulose, povidone, crospovidone, poloxamer 188 and magnesium stearate. The preferred oral form is a capsule. The amount of active ingredient in the capsule or oral dosage form may range from 1 mg to 250 mgs with a preferred range of 10-150 mg with a more preferred range of 20-100 mg per day in humans. The present invention also relates to an NK-1 antagonist (e.g., Formula II) having a half-life of approximately 10-13 days. The present invention further relates to a method of treating pruritus comprising administering a pharmaceutically effective amount of a compound of formula II having a half-life of 10-13 days to a patient in need of treatment thereof. […] The measured onset melting temperature as measured by differential scanning calorimetry (DSC) is 168.9. […]
# NK3 receptor = target: T1, NK3 receptor (Homo sapiens, UniProt P29371); experiment: NK3 receptor affinity; assay type: binding
# T1 sequence (P29371 1-465): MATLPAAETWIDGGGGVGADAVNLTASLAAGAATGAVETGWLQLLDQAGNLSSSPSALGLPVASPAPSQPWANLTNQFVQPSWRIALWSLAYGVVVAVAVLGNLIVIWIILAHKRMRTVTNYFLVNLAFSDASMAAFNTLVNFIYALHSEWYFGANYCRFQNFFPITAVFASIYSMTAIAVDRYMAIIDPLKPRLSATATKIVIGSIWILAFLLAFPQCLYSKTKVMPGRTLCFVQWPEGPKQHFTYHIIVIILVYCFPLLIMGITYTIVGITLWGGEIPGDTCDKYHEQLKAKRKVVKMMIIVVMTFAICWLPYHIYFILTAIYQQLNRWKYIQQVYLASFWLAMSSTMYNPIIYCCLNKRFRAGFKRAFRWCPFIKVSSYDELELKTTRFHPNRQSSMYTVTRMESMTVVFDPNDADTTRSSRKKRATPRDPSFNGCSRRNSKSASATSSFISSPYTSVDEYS
# Text: A compound of formula I (also designated SCH 900978) is a potent, selective, competitive neurokinin-1 (NK-1) receptor antagonist that is effective as an oral administered drug for the treatment of cough and meets this unmet medical need. In addition, this drug is effective for the treatment of overactive bladder (OAB) and other selected indications including major depression and alcohol dependency. […] The present invention comprises a compound of formula I having an effective dose for 90% inhibition [ED90]=0.2 mg/kg as determined in an in vivo pharmacodynamic model of NK1 receptor activity (gerbil foot thumping).
# SCH900978 was also tested for NK2 and NK3 receptor activity and in 106 other receptors, transporters, enzymes and ion channels and had greater than 1000 fold lower affinity for these than for the NK1 receptor.
# [2] = Pharmacokinetics/toxicokinetics and excretion in monkeys; assay type: in vivo, monkey; details: for plasma concentration-time profile: single oral dose
# Text: Urinary excretion was also substantial (approximately 20%).
# log D, octanol/water = assay type: physicochemical; details: pH 7.4, octanol/water system
# Text: as §1
# NK1 receptor = target: T2, NK1 receptor (Canis lupus familiaris, UniProt Q5DUB3); experiment: Substance P-elicited blood pressure and minute volume changes in dogs; assay type: in vivo; details: dog, 0.3 mg/kg oral
# T2 construct: from tissue; host or cells: living dog
# T2 sequence (Q5DUB3 whole entry): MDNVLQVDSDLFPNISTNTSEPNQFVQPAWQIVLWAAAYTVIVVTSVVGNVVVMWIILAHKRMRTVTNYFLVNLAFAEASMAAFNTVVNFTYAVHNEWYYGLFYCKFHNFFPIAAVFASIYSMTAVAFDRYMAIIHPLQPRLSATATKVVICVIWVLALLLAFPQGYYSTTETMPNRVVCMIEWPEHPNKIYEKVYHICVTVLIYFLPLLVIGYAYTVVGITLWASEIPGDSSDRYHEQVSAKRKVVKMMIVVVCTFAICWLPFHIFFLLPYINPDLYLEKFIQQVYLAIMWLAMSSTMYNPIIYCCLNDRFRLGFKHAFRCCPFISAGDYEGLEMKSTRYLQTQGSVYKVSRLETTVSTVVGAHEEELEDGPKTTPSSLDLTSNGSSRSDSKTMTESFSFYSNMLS
# [3] = 25 mg solution, single oral dose, n = 5
# [4] = 50 mg fasted, single oral dose, n = 6
# [5] = 50 mg fed, single oral dose, n = 6
compound,measurement,setting,value
"C[C@@H](OC[C@@]1(c2ccccc2)CC[C@](C#N)(n2cn[nH]c2=O)CN1)c1cc(C(F)(F)F)cc(C(F)(F)F)c1 [Compound 42, (3 S,6S)-6-({(1R)-1-[3,5-bis(trifluoromethyl)phenyl]ethoxy}methyl)-3-(5-oxo-1,5dihydro-4H-1,2,4-triazol-4-yl)-6-phenylpiperidine-3-carbonitrile]",Tf Mean/% CV,"[1]; 25 mg capsule, single oral dose, n = 5",312^b/0^ hr
same,Cmax Mean/% CV,"[1]; 25 mg capsule, single oral dose, n = 6",213/27
same,AUC(tf) Mean/% CV,[1]; [3],29900/22
same,Tf Mean/% CV,[1]; [3],312/0
same,Cmax Mean/% CV,"[1]; 25 mg solution, single oral dose, n = 5, adjusted for carryover",301/21
same,AUC(l) Mean/% CV,[1]; [4],88700/23
same,AUC(tf) Mean/% CV,[1]; [4],59700/24
same,Cmax Mean/% CV,[1]; [4],388/32
same,T1/2 Mean/% CV,[1]; [4],309/32
same,Tf Mean/% CV,[1]; [4],504/0
same,AUC(tf) Mean/% CV,[1]; [5],69000/19
same,Tf Mean/% CV,[1]; [5],504/0
same,Cmax Mean/% CV,"[1]; 50 mg fed, single oral dose, n = 6, adjusted for carryover",366/23
same,"bioavailability, solution versus capsule oral formulations",[1]; healthy volunteers,comparable
same,effect of food on oral bioavailability,[1]; healthy volunteers,no effect
same,safety and tolerability,"[1]; healthy volunteers, oral doses up to 50 mg",safe and well tolerated
same,absorption and elimination,"[1]; healthy volunteers, single oral doses 10, 25, 50 mg",rapidly absorbed and slowly eliminated
same,AUC,"[1]; human, plasma, oral, 10 mg to 200 mg dose, after a single dose, read-out: AUC plasma blood level",19000 to 352000 ng·h/mL
same,half-life,"[1]; human, plasma, oral, human, read-out: t1/2 (half-life)",10 to 13 days
same,Cmax,"[1]; human, plasma, oral, 10 mg to 200 mg dosage range, based on values from volunteers given 10, 25 and 50 mg, read-out: Cmax (either calculated or estimated)",103 to 1480 ng/mL
same,Tmax,"[1]; human, plasma, oral, each dosage strength 10, 25, 50 mg",0 to 0.167 days
same,AUC,"[1]; human, plasma, po, 25 mg, 25 mg capsule, single oral dose, n = 4, read-out: AUC(l) Mean/% CV",42900 ng·h/mL
same,half-life,"[1]; human, plasma, po, 25 mg, 25 mg capsule, single oral dose, n = 4, read-out: T1/2 Mean/% CV (converted)",9.92 days
same,AUC,"[1]; human, plasma, po, 25 mg, 25 mg capsule, single oral dose, n = 5, read-out: AUC(tf) Mean/% CV",25700 ng·h/mL
same,AUC,"[1]; human, plasma, po, 25 mg, 25 mg solution, single oral dose, n = 4, read-out: AUC(l) Mean/% CV",52600 ng·h/mL
same,half-life,"[1]; human, plasma, po, 25 mg, 25 mg solution, single oral dose, n = 4, read-out: T1/2 Mean/% CV (converted)",10.5 days
same,AUC,"[1]; human, plasma, po, 50 mg, 50 mg fed, single oral dose, n = 4, read-out: AUC(l) Mean/% CV",97000 ng·h/mL
same,half-life,"[1]; human, plasma, po, 50 mg, 50 mg fed, single oral dose, n = 4, read-out: T1/2 Mean/% CV (converted)",13.2 days
same,exposure (Cmax and AUC) versus dose,"[1]; single oral doses 10, 25, 50 mg",dose related
same,solubility,Solubility,1.8 µg/mL
same,Ki,NK3 receptor,> 1 µM
same,fold lower affinity than for the NK1 receptor,NK3 receptor; NK3 vs NK1,greater than 1000 fold
same,"exposure, effect of sex",[2]; monkeys,independent of sex
same,"systemic exposure versus dose, single dose",[2]; monkeys,increased with increasing dose
same,plasma concentrations over 24 hours after 29th dose versus first dose,[2]; monkeys 0.5 to 30 mg/kg,greater
same,exposure versus dose,"[2]; monkeys, once daily oral doses for one month",generally increased as the dose increased
same,major elimination pathway,"[2]; monkeys, oral administration",excretion into the feces
same,plasma concentration-time profile,"[2]; monkeys, listed as SCH 900978",extended absorption of SCH900978 with a long t1/2
same,plasma concentration-time profile,"[2]; monkeys, listed as SCH900978",extended absorption of the drug and a long apparent terminal elimination phase half-life
same,logD,"log D, octanol/water",4.5
same,inhibition of substance P-elicited increase in minute volume,NK1 receptor,maximally inhibited
same,inhibition of substance P-elicited reduction in blood pressure,NK1 receptor,maximally inhibited

# Source: patent publication US20180153872A1, “HETEROARYL CARBONITRILES FOR THE TREATMENT OF DISEASE” (OPKO Health, Inc., priority 2015, published 2018)
